Measurements from patent publication US9181197B2 (priority 2008, dated 2015).
Values joined by “and” are separate entries in the source; they are usually repeats but may differ in a detail not shown here. Identical values can stand only once. “Also recorded” adds a separate entry of the source. Like-named read-outs stand apart in the source and are kept apart here.

Tests used:
rats [1] = assay: loss of righting reflex (LORR) in rats after IV bolus; assay type: in vivo; details: for ED50: Rattus norvegicus; for ED50 / slope of duration of LORR versus logarithm of anesthetic dose: rats, IV bolus; for anesthetic toxicity in rats: highest doses
Method: Rats were briefly restrained in a 3 inch diameter, 9 inch long acrylic chamber with a tail exit port. The desired dose of anesthetic was injected through a lateral tail vein catheter followed by an approximately 1 ml normal saline flush. Immediately after injection, rats were removed from the restraint device and turned supine. […] A stop-watch was used to measure the duration of LORR, which was defined as the time from drug injection until the animal spontaneously righted itself. The ED50 for LORR upon bolus anesthetic administration was determined from the anesthetic dose-dependence of LORR.

rats [2] = details: rat, in vivo, iv
rats [3] = assay: heart rate and blood pressure in rats at equianesthetic doses; details: for increase in heart rate shortly after injection / duration of significant effect on mean blood pressure / maximum decrease in mean blood pressure relative to baseline: IV, twice ED50 for LORR; for maximum decrease in mean blood pressure relative to baseline: n=3
animals = details: LD50/ED50; cited from earlier work
[4] = molecular target: T1, Human GABAA receptors composed of α1β2γ2L subunits (Homo sapiens, UniProt P14867+P47870); assay: two-microelectrode voltage clamp of GABAA receptor currents in Xenopus oocytes; assay type: cell-based; details: for enhancement of amplitudes of GABA-evoked currents: EC5-10 GABA, each anesthetic at its anesthetic EC50 (8 μM MOC-(R)-etomidate, 2 μM (R)-etomidate), n=6 oocytes; for direct activation of GABAA receptors: before application of GABA
T1 construct: expressed in transfected cells; host or cells: Xenopus laevis oocytes
T1 sequence (P14867 28-456): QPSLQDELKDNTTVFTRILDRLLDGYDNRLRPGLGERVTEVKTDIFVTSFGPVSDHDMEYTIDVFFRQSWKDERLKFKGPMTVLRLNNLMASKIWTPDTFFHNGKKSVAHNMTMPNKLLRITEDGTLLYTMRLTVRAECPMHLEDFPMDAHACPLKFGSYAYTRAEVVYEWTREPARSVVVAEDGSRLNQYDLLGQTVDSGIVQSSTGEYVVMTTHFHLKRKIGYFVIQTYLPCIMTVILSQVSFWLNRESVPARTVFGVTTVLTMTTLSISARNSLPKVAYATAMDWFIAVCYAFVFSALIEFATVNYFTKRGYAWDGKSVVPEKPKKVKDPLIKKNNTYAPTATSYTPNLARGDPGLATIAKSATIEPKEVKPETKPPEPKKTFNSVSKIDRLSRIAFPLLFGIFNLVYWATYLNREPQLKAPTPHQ
T1 sequence (P47870 25-512 limits assumed): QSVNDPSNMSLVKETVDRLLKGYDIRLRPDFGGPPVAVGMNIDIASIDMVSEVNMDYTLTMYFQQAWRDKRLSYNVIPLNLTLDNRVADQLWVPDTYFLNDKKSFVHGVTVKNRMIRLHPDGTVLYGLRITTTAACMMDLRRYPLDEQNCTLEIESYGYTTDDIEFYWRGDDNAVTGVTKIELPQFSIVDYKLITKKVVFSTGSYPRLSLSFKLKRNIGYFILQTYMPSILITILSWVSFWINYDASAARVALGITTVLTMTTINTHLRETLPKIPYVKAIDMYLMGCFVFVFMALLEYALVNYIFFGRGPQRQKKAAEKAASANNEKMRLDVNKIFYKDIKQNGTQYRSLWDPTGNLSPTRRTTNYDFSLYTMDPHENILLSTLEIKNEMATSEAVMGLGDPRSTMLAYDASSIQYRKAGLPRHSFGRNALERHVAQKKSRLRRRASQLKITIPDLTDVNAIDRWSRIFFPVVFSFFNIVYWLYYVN
T1 sequence (P18507 40-475 partner): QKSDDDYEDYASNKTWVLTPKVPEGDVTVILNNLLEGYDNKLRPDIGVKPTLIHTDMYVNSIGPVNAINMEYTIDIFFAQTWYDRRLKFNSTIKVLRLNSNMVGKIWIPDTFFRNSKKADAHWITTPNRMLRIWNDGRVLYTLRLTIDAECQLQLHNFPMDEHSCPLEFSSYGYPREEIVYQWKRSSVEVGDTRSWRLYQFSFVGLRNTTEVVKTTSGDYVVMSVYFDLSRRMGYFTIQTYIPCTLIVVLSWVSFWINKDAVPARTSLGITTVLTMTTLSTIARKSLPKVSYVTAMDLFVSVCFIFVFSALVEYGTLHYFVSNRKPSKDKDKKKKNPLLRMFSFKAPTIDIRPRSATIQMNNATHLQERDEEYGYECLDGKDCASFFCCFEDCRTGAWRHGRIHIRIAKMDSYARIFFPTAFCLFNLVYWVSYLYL

Xenopus laevis tadpoles [5] = details: Husain et al. 2003, read-out: EC50 / free-aqueous concentration inducing loss of righting reflexes in tadpoles; cited from earlier work
humans = details: Arden et al. 1986; cited from earlier work
patients = details: cited from earlier work
rats [6] = assay: ACTH1-24-stimulated serum corticosterone in rats (adrenocortical function); details: 30 min after equianesthetic dose
[7] = in-vitro metabolism in pooled human S9 liver fraction; details: for half-life at 10 μM: human, s9; for rate of metabolism relative to (R)-etomidate: liver enzymes, S9
Xenopus laevis tadpoles [8] = assay: tadpole loss of righting reflex assay

## CCOC(=O)c1cncn1[C@H](C)c1ccccc1 (stereo in doubt) [(R)-etomidate, ethyl 3-(1-phenylethyl)imidazole-4-carboxylate]
Rats [1]
  ED50: 1 ± 0.03 mg/kg
  anesthetic toxicity in rats: no obvious anesthetic toxicity
  slope of duration of LORR versus logarithm of anesthetic dose: 27±7
Rats [2]
  duration of significant effect on mean blood pressure: 6.5 min
  maximum decrease in mean blood pressure relative to baseline: −36±11 mmHg
Rats [3]
  increase in heart rate shortly after injection: 49±67 BPM

## CCCC(C)C1(CC)C(=O)NC(=S)NC1=O (stereo not shown) [thiopental]
animals
  therapeutic index: 4.6

## CCOC(=O)c1cncn1[C@H](C)c1ccccc1 [(R)-etomidate, ethyl 3-(1-phenylethyl)imidazole-4-carboxylate]
[4]
  enhancement of amplitudes of GABA-evoked currents: 660±240%
  direct activation of GABAA receptors: evoked small currents
Xenopus laevis tadpoles [5]
  EC50: ~2000 nM and 2000 nM
humans
  free-aqueous concentration inducing loss of responsiveness: ~2 µM
patients; critically ill patients
  duration of adrenal suppression after single bolus induction dose: ≥ 24 h
patients; doses producing general anesthesia
  persistence of adrenal insufficiency after discontinuing prolonged infusion: more than 4 days
Rats [6]
  ACTH1-24-stimulated corticosterone concentration versus vehicle: significantly lower; also recorded: significantly reduced

## O=C1CC2(CCCC2)CC(=O)N1CCCCN1CCN(c2ncccn2)CC1 [buspirone]
[7]
  half-life at 10 μM: 15.4 min

## COC(=O)CCOC(=O)c1cncn1[C@H](C)c1ccccc1 [MOC-(R)-etomidate, (R)-3-Methoxy-3-oxopropyl1-(1-phenylethyl)-1H-imidazole-5-carboxylate]
[4]
  enhancement of amplitudes of GABA-evoked currents: 450±130%
  direct activation of GABAA receptors: evoked small currents
Rats [1]
  ED50: 5.2 ± 1 mg/kg
  anesthetic toxicity in rats: no obvious anesthetic toxicity
  slope of duration of LORR versus logarithm of anesthetic dose: 2.8±0.4
Rats [1]; equianesthetic doses
  duration of LORR shorter versus propofol or (R)-etomidate: ~10 fold
Rats [1]; two species (tadpoles, rats)
  anesthetic potency relative to (R)-etomidate's potency: ¼^th-⅕^th
Xenopus laevis tadpoles [8]; 0.1-128 μM, recovery in fresh oxygenated water
  toxicity in tadpoles: No evidence of toxicity was observed
Xenopus laevis tadpoles [8]; Xenopus laevis, read-out: anesthetic EC50 (loss of righting reflexes)
  EC50: 8000 ± 2000 nM
Xenopus laevis tadpoles [8]; highest concentrations, 48-128 μM
  fraction of tadpoles anesthetized: all tadpoles were anesthetized
[7]; by 40 min
  percent of original concentration remaining: < 1%
[7]; by 40 min, +NADPH, 37° C.
  percent metabolized: more than 99%
[7]; by 40 min, start 10 μM
  concentration remaining: < 100 nM
[7]
  half-life at 10 μM: 4.2 min
  rate of metabolism relative to (R)-etomidate: at least 100 fold
[7]; listed as MOC-(R)-Etomidate
  rate of metabolism relative to (R)-etomidate: > 100 fold
Rats [3]
  duration of significant effect on mean blood pressure: 30 s
  increase in heart rate shortly after injection: 24±33 BPM
  maximum decrease in mean blood pressure relative to baseline: −11±15 mmHg
Rats [3]; summary
  duration of reduction in blood pressure: 30 s
Rats [6]
  ACTH1-24-stimulated corticosterone concentration versus vehicle: not different from those that had received only vehicle; also recorded: no reduction; also recorded: unchanged versus control

## CC(C)c1cccc(C(C)C)c1O [propofol]
Rats [1]
  ED50: 4.1 ± 0.3 mg/kg
  anesthetic toxicity in rats: no obvious anesthetic toxicity
  slope of duration of LORR versus logarithm of anesthetic dose: 22±4
animals
  therapeutic index: 3.1
Rats [3]
  duration of significant effect on mean blood pressure: 420 s
  increase in heart rate shortly after injection: 64±56 BPM
  maximum decrease in mean blood pressure relative to baseline: −51±19 mmHg
